Data taken from BindingDB's records for doi:10.1021/jm00040a004 (Glaxo Group Research, 1994).

Test: In vitro kappa-opioid receptor agonist activity in isolated rabbit vas deferens assay
In the case of `Cc1cc2c(o1)CCN(C(=O)Cc1ccc(Cl)c(Cl)c1)C2CN1CCC(O)C1` (stereo not given) [2-(3,4-Dichloro-phenyl)-1-[4-(3-hydroxy-pyrrolidin-1-ylmethyl)-2-methyl-6,7-dihydro-4H-furo[3,2-c]pyridin-5-yl]-ethanone], the IC50 is reported as 0.39 nM.
With `O=C(Cc1ccc(Cl)c(Cl)c1)N1CCc2c(O)cccc2C1CN1CCC(O)C1` (stereo not given) [2-(3,4-Dichloro-phenyl)-1-[5-hydroxy-1-(3-hydroxy-pyrrolidin-1-ylmethyl)-3,4-dihydro-1H-isoquinolin-2-yl]-ethanone] the IC50 was 3.8 nM.
`O=C(Cc1ccc(Cl)c(Cl)c1)N1CCc2occc2[C@H]1CN1CC[C@@H](O)C1` [(RS)-2-(3,4-Dichloro-phenyl)-1-[4-(3-hydroxy-pyrrolidin-1-ylmethyl)-6,7-dihydro-4H-furo[3,2-c]pyridin-5-yl]-ethanone(GR 91272)] gave an IC50 of 3.4 nM.
Compound `CN(C)CC1c2ccoc2CCN1C(=O)Cc1ccc(Cl)c(Cl)c1` (stereo not given) [2-(3,4-Dichloro-phenyl)-1-(4-dimethylaminomethyl-6,7-dihydro-4H-furo[3,2-c]pyridin-5-yl)-ethanone] has an IC50 of 22 nM.
In the case of `O=C1CCN(CC2c3ccoc3CCN2C(=O)Cc2ccc(Cl)c(Cl)c2)C1` (stereo not given) [1-{5-[2-(3,4-Dichloro-phenyl)-acetyl]-4,5,6,7-tetrahydro-furo[3,2-c]pyridin-4-ylmethyl}-pyrrolidin-3-one], the IC50 is reported as 6 nM.
Work on `O=C(Cc1ccc(Cl)c(Cl)c1)N1CCc2occc2[C@@H]1CN1CC[C@H](O)C1` [2-(3,4-Dichloro-phenyl)-1-[(R)-4-((S)-3-hydroxy-pyrrolidin-1-ylmethyl)-6,7-dihydro-4H-furo[3,2-c]pyridin-5-yl]-ethanone] yielded an IC50 of 1.1 nM.
`O=C(Cc1ccc(Cl)c(Cl)c1)N1CCc2occc2C1CN1CCC(O)C1` (stereo not given) [2-(3,4-Dichloro-phenyl)-1-[4-(3-hydroxy-pyrrolidin-1-ylmethyl)-6,7-dihydro-4H-furo[3,2-c]pyridin-5-yl]-ethanone] gave an IC50 of 2.7 nM.
Compound `O=C(Cc1ccc(Cl)c(Cl)c1)N1CCc2occc2C1CN1CC=CCC1` (stereo not given) [2-(3,4-Dichloro-phenyl)-1-[4-(3,6-dihydro-2H-pyridin-1-ylmethyl)-6,7-dihydro-4H-furo[3,2-c]pyridin-5-yl]-ethanone] has an IC50 of 1.4 nM.
With `O=C(Cc1ccc(Cl)c(Cl)c1)N1CCc2occc2C1CN1CCCC1` (stereo not given) [2-(3,4-Dichloro-phenyl)-1-(4-pyrrolidin-1-ylmethyl-6,7-dihydro-4H-furo[3,2-c]pyridin-5-yl)-ethanone] the IC50 was 15 nM.
Work on `O=C(Cc1ccc(Cl)c(Cl)c1)N1CCc2c(O)cccc2C1CN1CCCC1` (stereo not given) yielded an IC50 of 0.11 nM.
